One test concerns the target DGKζ (Homo sapiens (Human), UniProt Q13574). In words: In vitro DGKζ inhibition assay (ADP-Glo). Type of test: biochemical. The conditions noted are these: His-tagged human recombinant DGKζ 0.4 nM, 30 μM ATP, 20 μM DLG. As for the experimental part:
(§1) The DGKα and DGKζ biochemical reactions were performed using His-tagged human recombinant enzymes (Signal Chem, DGKα, #D21-10BH; DGKζ, #D30-10H)) and DLG (Dilauroyl-sn-glycerol) lipid substrate (Signal Chem, #D430-59). ADP-Glo assay was performed using ADP-Glo™ kinase Assay kit (Promega, #V9104). The reactions were carried out in assay buffer containing 40 mM Tris, pH 7.5, 0.1% CHAPS, 0.1% Prionex, 40 mM NaCl, 5 mM MgCl2, 1 mM CaCl2, and 1 mM DTT. DGKα reactions contained 0.1 nM DGKα, 50 μM ATP, and 20 μM DLG. And DGKζ reactions contained 0.4 nM DGKζ, 30 μM ATP, and 20 μM DLG.
(§2) For compound inhibition studies, 40 nL test compound in DMSO was added to wells of white polystyrene plates in 384-well (Greiner, #784075) or 1536-well format (Greiner, #782075). Compounds were added with top concentration of 2 mM with 11 point, 3-fold dilution series. Enzyme solution (contains 2×DGK enzyme concentration in 1× assay buffer) was added to the plate in 2 μL/well volume, followed by 2 μL/well of substrate solution (contains 2×concentration of ATP and DLG substrate in 1× assay buffer). Plates were then centrifuged for 1 min at 1200 RPM and sealed or lidded. For 4 μL reaction volume, test compounds were therefore diluted 100× to final top concentration of 20 μM. After 90 minute incubation, reactions were quenched by addition of 2 μL/well Promega ADP-Glo Reagent, followed by centrifugation and lidding. After 60 min incubation, 2 μL/well Promega Kinase Detection Reagent was added, plates centrifuged, and incubated for 30 min. Plates were then read using Luminescence method on BMG PHERAstar FSX plate reader. Percent inhibition was calculated and IC50s were determined using 4-parameter fit in Genedata Screener. Labcyte Echo acoustic dispenser was used for compound addition, and Formulatrix Tempest liquid handler was used for all reagent dispenses.
For orientation: ADP-Glo turns the ADP formed in a reaction into a luminescent signal.

The target in another test is DGKα (Homo sapiens (Human), UniProt P23743). In words: In vitro DGKα inhibition assay (ADP-Glo). Type of test: biochemical. Particulars: His-tagged human recombinant DGKα 0.1 nM, 50 μM ATP, 20 μM DLG. As to the method: as §1, §2
Sequence of DGKα (P23743 whole entry): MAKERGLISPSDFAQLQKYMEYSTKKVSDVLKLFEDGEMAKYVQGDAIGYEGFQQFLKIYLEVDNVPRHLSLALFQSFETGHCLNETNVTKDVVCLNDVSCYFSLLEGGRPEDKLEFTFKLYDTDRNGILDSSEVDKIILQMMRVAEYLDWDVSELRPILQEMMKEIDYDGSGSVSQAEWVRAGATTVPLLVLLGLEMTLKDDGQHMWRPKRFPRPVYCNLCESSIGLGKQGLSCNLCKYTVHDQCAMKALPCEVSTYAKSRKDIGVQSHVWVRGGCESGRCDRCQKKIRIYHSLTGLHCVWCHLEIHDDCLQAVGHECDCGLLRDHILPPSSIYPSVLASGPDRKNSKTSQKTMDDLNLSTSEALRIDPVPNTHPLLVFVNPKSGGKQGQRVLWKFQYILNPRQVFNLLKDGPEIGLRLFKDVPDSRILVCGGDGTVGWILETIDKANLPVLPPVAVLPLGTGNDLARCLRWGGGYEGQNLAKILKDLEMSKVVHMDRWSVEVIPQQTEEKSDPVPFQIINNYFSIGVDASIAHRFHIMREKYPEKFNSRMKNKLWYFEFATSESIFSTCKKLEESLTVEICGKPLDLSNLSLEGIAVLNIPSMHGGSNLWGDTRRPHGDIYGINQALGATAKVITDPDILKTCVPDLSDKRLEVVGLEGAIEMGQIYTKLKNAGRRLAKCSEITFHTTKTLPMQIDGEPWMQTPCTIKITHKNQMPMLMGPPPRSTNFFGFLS

Structures are written as SMILES.

Sequence of DGKζ (Q13574 whole entry): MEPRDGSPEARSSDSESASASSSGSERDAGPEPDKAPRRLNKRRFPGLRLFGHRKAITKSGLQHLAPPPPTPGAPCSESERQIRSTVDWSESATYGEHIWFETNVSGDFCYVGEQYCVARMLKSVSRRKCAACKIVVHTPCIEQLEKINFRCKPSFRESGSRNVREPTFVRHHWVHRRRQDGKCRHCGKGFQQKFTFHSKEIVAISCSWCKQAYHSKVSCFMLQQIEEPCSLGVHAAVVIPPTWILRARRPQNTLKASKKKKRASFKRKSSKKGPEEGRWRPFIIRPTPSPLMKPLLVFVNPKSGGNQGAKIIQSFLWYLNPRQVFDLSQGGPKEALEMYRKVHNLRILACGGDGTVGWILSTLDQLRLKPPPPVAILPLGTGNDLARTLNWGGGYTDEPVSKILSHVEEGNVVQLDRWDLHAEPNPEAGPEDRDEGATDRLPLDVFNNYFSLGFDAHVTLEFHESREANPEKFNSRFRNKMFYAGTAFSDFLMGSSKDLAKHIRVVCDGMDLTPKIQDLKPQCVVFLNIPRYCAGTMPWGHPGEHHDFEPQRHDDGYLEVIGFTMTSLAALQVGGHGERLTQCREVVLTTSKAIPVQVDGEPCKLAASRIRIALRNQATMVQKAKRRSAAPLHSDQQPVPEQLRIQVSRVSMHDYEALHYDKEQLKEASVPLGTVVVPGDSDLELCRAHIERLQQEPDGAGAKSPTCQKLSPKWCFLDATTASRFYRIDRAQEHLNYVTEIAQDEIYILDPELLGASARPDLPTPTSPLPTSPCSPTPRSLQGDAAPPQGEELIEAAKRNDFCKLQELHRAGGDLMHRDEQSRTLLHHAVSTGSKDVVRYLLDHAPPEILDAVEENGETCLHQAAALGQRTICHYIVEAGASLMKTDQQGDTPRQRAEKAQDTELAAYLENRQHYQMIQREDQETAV

Broadly, the IC50 is the concentration needed to halve the response being measured. In the case of `Cn1c(=O)c2c(c3nc(CC#N)cnc31)N1CCN(C(c3ccc(F)cc3)c3ccc(F)cc3)C[C@@H]1COC2=O` [Example 5, (R)-2-(11-(Bis(4-fluorophenyl)methyl)-5-methyl-6,7-dioxo-5,7,9,9a,10,11,12,13-octahydro-6H-pyrazino[2,1-c]pyrazino[2′,3′: 5,6]pyrido[4,3-e][1,4]oxazepin-2-yl)acetonitrile], the IC50 on DGKζ and on DGKα was 40 to 200 nM in each case.
Take `Cn1c(=O)c2c(c3ncc(C#N)cc31)N1CCN(C(c3ccc(F)cc3)c3ccc(F)cc3)C[C@@H]1COC2=O` [Example 9, (R)-11-(Bis(4-fluorophenyl)methyl)-5-methyl-6,7-dioxo-5,7,9,9a,10,11,12,13-octahydro-6H-pyrazino[2′,1′:3,4][1,4]oxazepino[6,5-c][1,5]naphthyridine-3-carbonitrile]: the IC50 was over 2000 nM on DGKζ and at most 40 nM at DGKα.
Turning to `Cn1c(=O)c2c(c3ncc(CC#N)cc31)N1CCN(C(c3ccc(F)cc3)c3ccc(F)cc3)C[C@@H]1COC2=O` [Example 10, (R)-2-(11-(Bis(4-fluorophenyl)methyl)-5-methyl-6,7-dioxo-5,7,9,9a,10,11,12,13-octahydro-6H-pyrazino[2′,1′:3,4][1,4]oxazepino[6,5-c][1,5]naphthyridin-3-yl)acetonitrile], the IC50 at DGKζ was over 2000 nM.
Take `CN1C(=O)CC2CN(C(c3ccc(F)cc3)c3ccc(F)cc3)CCN2c2c1c(=O)n(C)c1ccc(C#N)nc21` (single isomer, unassigned) [Example 2, 11-(Bis(4-fluorophenyl)methyl)-5,7-dimethyl-6,8-dioxo-5,6,7,8,9,9a,10,11,12,13-decahydropyrazino[1′,2′: 4,5][1,4]diazepino[2,3-c][1,5]naphthyridine-2-carbonitrile]: the half-inhibitory concentration (IC50) is at most 40 nM at DGKζ and 40 to 200 nM on DGKα.
For `Cn1c(=O)c2c(c3nc(CC#N)ccc31)N1CCN(C(c3ccc(F)cc3)c3ccc(F)cc3)C[C@@H]1COC2=O` [Example 4, (R)-2-(11-(Bis(4-fluorophenyl)methyl)-5-methyl-6,7-dioxo-5,7,9,9a,10,11,12,13-octahydro-6H-pyrazino[2′,1′:3,4][1,4]oxazepino[6,5-c][1,5]naphthyridin-2-yl)acetonitrile], in that order: at most 40 nM and at most 40 nM.
For `Cn1c(=O)c2c(c3nc(C#N)ccc31)N1CCN(C(c3ccc(F)cc3)c3ccc(F)cc3)C[C@H]1COC2=O` [Example 6, (S)-11-(Bis(4-fluorophenyl)methyl)-5-methyl-6,7-dioxo-5,7,9,9a,10,11,12,13-octahydro-6H-pyrazino[2′,1′:3,4][1,4]oxazepino[6,5-c][1,5]naphthyridine-2-carbonitrile], in that order: at most 40 nM and at most 40 nM.
As for `Cn1c(=O)c2c(c3cc(CC#N)ccc31)N1CCN(C(c3ccc(F)cc3)c3ccc(F)cc3)C[C@@H]1COC2=O` [Example 8, (R)-2-(3-(Bis(4-fluorophenyl)methyl)-9-methyl-7,8-dioxo-1,2,3,4,4a,5,8,9-octahydro-7H-pyrazino[2′,1′:3,4][1,4]oxazepino[6,5-c]quinolin-12-yl)acetonitrile], on DGKζ, the IC50 was 40 to 200 nM.
For `CN1C(=O)CC2CN(C(c3ccc(F)cc3)c3ccc(F)cc3)CCN2c2c1c(=O)n(C)c1ccc(C#N)nc21` (single isomer, unassigned) [Example 1, 11-(Bis(4-fluorophenyl)methyl)-5,7-dimethyl-6,8-dioxo-5,6,7,8,9,9a,10,11,12,13-decahydropyrazino[1′,2′: 4,5][1,4]diazepino[2,3-c][1,5]naphthyridine-2-carbonitrile], the IC50 at DGKζ was 200 to 2000 nM; on DGKα, at most 40 nM.
Taken in the same sequence, the figures for `C[C@@H]1CN2c3c(c(=O)n(C)c4ccc(C#N)nc34)C(=O)OC[C@H]2CN1C(c1ccc(F)cc1)c1ccc(F)cc1` [Example 7, (9aR,12R)-11-(Bis(4-fluorophenyl)methyl)-5,12-dimethyl-6,7-dioxo-5,7,9,9a,10,11,12,13-octahydro-6H-pyrazino[2′,1′:3,4][1,4]oxazepino[6,5-c][1,5]naphthyridine-2-carbonitrile] were 200 to 2000 nM and at most 40 nM.
Take `Cn1c(=O)c2c(c3nc(C#N)ccc31)N1CCN(C(c3ccc(F)cc3)c3ccc(F)cc3)C[C@@H]1COC2=O` [Example 3, (R)-11-(Bis(4-fluorophenyl)methyl)-5-methyl-6,7-dioxo-5,7,9,9a,10,11,12,13-octahydro-6H-pyrazino[2′,1′:3,4][1,4]oxazepino[6,5-c][1,5]naphthyridine-2-carbonitrile]: the IC50 on DGKζ and on DGKα was at most 40 nM each time.

Source of the values: patent US20240025900A1, “TETRACYCLIC COMPOUNDS AS DGK INHIBITORS” (Incyte Corporation, priority 2022, published 2024).
